Data on 1 cell line can be found in the supplement of paper PMC10307832.

Assay in all cases: relative viability (nuclei count vs DMSO), 5 days (fraction); higher = more cells survive
Compound in the assay “Selumetinib + Trametinib”: Cn1cnc2c(F)c(Nc3ccc(Br)cc3Cl)c(C(=O)NOCCO)cc21 [Selumetinib] + CC(=O)Nc1cccc(-n2c(=O)n(C3CC3)c(=O)c3c(Nc4ccc(I)cc4F)n(C)c(=O)c(C)c32)c1 [Trametinib] (partner 0.02 µM)
In a few lines: (§1)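 A single step with final 0.05% Triton X-100, 1% formaldehyde and 1 ug/ml Hoechst fixed the cells and stained nuclei 5 days after treatment. Lung cancer cell lines in 1536-well plates had been treated by pin tool the day after seeding with one drug alone or a fixed anchor-drug dose plus five library-drug doses (not always all listed) in √10 steps, and nuclei were counted on 4× images. Relative viability is the ratio of nuclei in treated wells to nuclei in vehicle wells, taken as the median of duplicate plates.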

Compound in the assay “Selumetinib + OSI-027”: Cn1cnc2c(F)c(Nc3ccc(Br)cc3Cl)c(C(=O)NOCCO)cc21 [Selumetinib] + COc1cccc2cc(-c3nc([C@H]4CC[C@H](C(=O)O)CC4)n4ncnc(N)c34)[nH]c12 [OSI-027] (partner 0.5 µM)
The method in brief: as §1

Compound in the assay “Selumetinib + Navitoclax”: Cn1cnc2c(F)c(Nc3ccc(Br)cc3Cl)c(C(=O)NOCCO)cc21 [Selumetinib] + CC1(C)CCC(c2ccc(Cl)cc2)=C(CN2CCN(c3ccc(C(=O)NS(=O)(=O)c4ccc(N[C@H](CCN5CCOCC5)CSc5ccccc5)c(S(=O)(=O)C(F)(F)F)c4)cc3)CC2)C1 [Navitoclax] (partner 0.5 µM)
In a few lines:
as §1

Compound in the assay “Venetoclax + Dasatinib”: CC1(C)CCC(CN2CCN(c3ccc(C(=O)NS(=O)(=O)c4ccc(NCC5CCOCC5)c([N+](=O)[O-])c4)c(Oc4cnc5[nH]ccc5c4)c3)CC2)=C(c2ccc(Cl)cc2)C1 [Venetoclax] + Cc1nc(Nc2ncc(C(=O)Nc3c(C)cccc3Cl)s2)cc(N2CCN(CCO)CC2)n1 [Dasatinib] (partner 0.075 µM)
The method in brief:
as §1

Take UMC-11: the relative viability was determined as 0.562 with Selumetinib + Trametinib (first compound 0.02 µM); 0.703 with Selumetinib + Trametinib (first compound 0.06325 µM); 0.879 with Selumetinib + Trametinib (first compound 0.2 µM); 0.812 in the assay with Selumetinib + Trametinib (first compound 0.6325 µM); 0.459 with Selumetinib + OSI-027 (first compound 0.02 µM); 0.471 with Selumetinib + OSI-027 (first compound 0.06325 µM). The relative viability in the assay with Selumetinib + OSI-027 (first compound 0.2 µM) came out at 0.379; in the assay with Selumetinib + OSI-027 (first compound 0.6325 µM), 0.45; with Selumetinib + Navitoclax (first compound 0.02 µM), 0.273; with Selumetinib + Navitoclax (first compound 0.06325 µM), 0.311; with Selumetinib + Navitoclax (first compound 0.2 µM), 0.3; with Selumetinib + Navitoclax (first compound 0.6325 µM), 0.314. In addition, the relative viability with Venetoclax + Dasatinib (first compound 0.01 µM) was 0.45; with Venetoclax + Dasatinib (first compound 0.03162 µM) it was 0.518; in the assay with Venetoclax + Dasatinib (first compound 0.1 µM) it was 0.463; in the assay with Venetoclax + Dasatinib (first compound 0.3162 µM), 0.505; with Venetoclax + Dasatinib (first compound 1 µM) it was 0.491.
